Test results: article PMC5594493, “Antiproliferative factor (APF) binds specifically to sites within the cytoskeleton-associated protein 4 (CKAP4) extracellular domain” (BMC Biochemistry, 2017)
Several values for one entry are separate records, joined by “and”; a condition that tells them apart may be missing. Equal values may be shown once.

Columns and labels:
[1] = test system: full-length CKAP4; test: SPR binding to full-length His-tagged CKAP4
Method: FL-CKAP4 was expressed in HEK 293 T cells (ATCC) and similarly purified by IMAC. Briefly, HEK 293 T cells were transfected with pcDNA3.1/V5-His TOPO vector (Life Technologies) expressing FL-CKAP4 using X-tremeGENE 9 transfection reagent (Roche) according to manufacturer’s protocol. Cells were harvested after transient expression (24 h) and held at −80 °C before proceeding to purification. Cell lysate was prepared in PBS buffer containing 10 mM CHAPS, 20 mM imidazole and EDTA-free protease inhibitor cocktail and sonicated before proceeding to protein purification, as described above. All purified proteins were quantitated by the BCA method according to the manufacturer’s protocol using BSA as the standard (ThermoScientific). Because of the varied amino acid compositions of the purified recombinant proteins, the UV (λ280nm) absorbance method was also used for reference.
All SPR experiments were performed on a Biacore X-100 instrument (GE Healthcare) with the chip surface at 25 °C using PBS containing 0.01% Tween-20 as running buffer. CKAP4 recombinant proteins were immobilized individually either by Ni^2+/nitrilotriacetic acid (NTA) chelation on Sensor Chip NTA or by amine-coupling on Sensor Chip CM5, on the Fc2 channel. […] The data were analyzed using Biacore Evaluation software V2.0. […]

[2] = test system: T24 bladder carcinoma cells; test: XTT cell proliferation assay, T24; format: cell-based; details: 20 nM, 96 h, serum-free, relative to vehicle/control, at least four independent times, P < 0.0001 vs control, as-APF vs APF P = 0.0103 (unpaired t-test, Welch's correction)
Method: T24 bladder carcinoma cells (ATCC #HTB-4; Manassas, VA) were maintained in HyClone-formulated McCoy’s 5A modified media (Catalog #SH30525.01) supplemented with 10% fetal bovine serum (FBS) (Atlanta Biologicals, Flowery Branch, GA), 100 U/ml penicillin, and 100 μg/ml streptomycin (Invitrogen, Carlsbad, CA). Cell proliferation was measured using the XTT Cell Proliferation Assay Kit (ATCC). T24 cells were seeded at 1 × 10^3–4 × 10^3 per well in a 48-well plate in 300 μl/well McCoy’s supplemented medium. Cells were serum-starved for 24 h and then treated with either 20 nM APF, 20 nM as-APF, or 25 μM H2O2 (antiproliferative control) diluted in serum-free McCoy’s medium. Cells were incubated at 37 °C in a 5% CO2 atmosphere for an additional 96 h, after which 150 μl of activated–XTT solution was added to each well followed by an additional 3 h incubation. Absorbance was then measured at 475 nm and 660 nm using an M5 microplate reader (Molecular Devices, Sunnyvale, CA), and the specific absorbance was calculated. P values were assigned using unpaired t-test with Welch’s correction. The assay was repeated four independent times.

[3] = test system: CKAP4; details: ref [17], [18]; cited from earlier work
Description: (§1) The effects that APF has on cells are remarkable and unique among the reported ligands for CKAP4.

[4] = test system: HeLa cells; details: in vitro; background statement, no reference given; read-out: IC50, growth inhibition; cited from earlier work
Description: as §1

[5] = test system: bladder carcinoma cells; details: in vitro; background statement, no reference given; read-out: IC50, growth inhibition; cited from earlier work
Description: as §1

For “Neu5Acα2 − 3Galβ1 − 3GalNAcα-O-TVPAAVVVA [APF]”, the binding ([1]; CKAP4FL immobilized via His-tag on NTA chip) was “did not generate sufficient binding”, the binding activity ([1]; full-length His-tagged CKAP4 purified from mammalian cells) was “did not detect appreciable binding activity” and the “reduction of T24 cell proliferation” value [2] was 47% and 47.08 ± 12.88%. For the same substance, the “effect on CKAP4 localization” value [3] was “internalization, nuclear translocation”, the IC50 [4] was about 1 nM and the IC50 [5] was about 1 nM.
